# According to patent publication US7635722B1, “Chemical induced intracellular hyperthermia” (priority 1998, dated 2009):
# Read-outs that look alike come from different tables or passages of the source.
# Experiments:
# [1] = assay type: in vivo, human
# Experimental: Placement of physiologic monitoring sensors, intravenous fluids, supplemental oxygen (4 l/min) and optional oral diazepam sedation (5-10 mg) is initiated prior to treatment. Patients receive 0.85 to 1.0 liter of intravenous (IV) 5% dextrose in 0.25 normal saline per hour alternated with 5% dextrose in 0.5 normal saline plus 7.5 to 10 meq of KCl per liter to insure a urinary output of no less than 1 ml/kg/hr. […] Two hours after treatment and 48 hours post-treatment, serum chemistries and hematologic profiles are repeated. A typical patient flow chart is depicted in FIG. 14.
# Pretreatment protocol: the patient was given 10 mg diazepam by mouth and dressed into a modified wet suit. The wet suit was cut lengthwise at the arms and legs. Velcro strappings were attached at the cuttings for closure, rapid removal or exposure of the limb(s). After placement of monitoring sensors, they were started on IV fluids of 5% dextrose, 0.5 normal saline with 7 meq K^+, infused at an initial rate of 12 cc/kg/hr. Evaporative heat loss from the head was minimized by a plastic shower cap and towels. A 401AC temperature probe (YSI Incorporated, Yellow Springs, Ohio) was inserted 11 cm. into the rectum. […] A TEEM 100 Metabolic Analysis System (AeroSport Inc., Ann Arbor, Mich.), with a modified face mask and oxygen delivery system (38-40% 02 saturation) for patient comfort and increased accuracy, was attached to the patient. Oxygen consumption (V02), carbon dioxide production (VC02), expired air volume (VE), heart rate (HR), and Kcal of heat produced were measured in 20 second intervals and extrapolated to minute or hourly rates.
# Pretreatment protocol: all medications were stopped 2 weeks prior to treatment. The patient refused taking diazepam, placement of a Foley catheter and oxygen face mask. They dressed themself into a dry cold water immersion suit (Stearns, ISS-590I, Universal Adult) designed to prevent heat loss and modified for easy placement of physiologic monitors. Equipment for measurement of heart rate, temperature, carbon dioxide production and Kcal of heat produced were conducted as outlined in Example 1. An oral breathing tube was used to measure V02 from room air. Urine output was measured when the patient voluntarily urinated through a “Texas” catheter (superficial condom tightly fitted around the head of the penis with tubing connected to urine collection bag). The patient was informed that hyperthermia would be administered as tolerated by their stamina and monitored clinical parameters, not to exceed 5 hours, on a daily or every other day basis, for a total of 5 sessions.
# Pretreatment protocol: the evening prior treatment the patient was instructed not to eat and dress in cotton undergarments. Approximately 4 hours prior to treatment 2 mg alprazolam was administered by mouth. The patient dressed themself into a dry cold water immersion suit (Stearns, previously described) with headgear. Monitoring sensors, including EKG display, IV fluids and Foley catheter were attached and the suit was zipped closed. The patient opted for oxygen supplementation. The modified face mask was connected to the TEEM 100 metabolic Analysis System for V02 measurements. Data was recorded as previously described.
# Pretreatment protocol: the patient was transfused with three units of packed red blood cells. A Foley catheter was inserted on each day of treatment. They were covered in a water soaked blanket containing a polyethylene lining. A shower cap with towels was used to prevent heat loss from the head. Intravenous lines were placed into both arms with 19 gauge intracaths. EKG, heart rate, rectal thermistor, and V02 monitors were attached. Oxygen supplemented facemask and equipment was attached and data monitored as previously described under Example 1.
# Pretreatment protocol: the patient was transfused with 2 units of packed red blood cells 48 hours prior to undergoing treatment. Intravenous fluids (Lactated Ringer's solution) were administered at a rate of 100 cc/hour. […]
# [2] = cited from earlier work
# hepatocyte = conditions: in less than 6 minutes after the hormonal action of glucagon; cited from earlier work
# hepatitis C virus = experiment: DNP with interferon-alpha, chronic hepatitis C (Example 10); assay type: in vivo, human; conditions: patient history
compound,measurement,setting,value
CNC(C)(C)Cc1ccccc1.CNC(C)(C)Cc1ccccc1.O=S(=O)(O)O [Mephenteramine sulfate],heart rate,"[1]; Example 4, ten minutes after 30 mg intramuscular, before DNP",96
same,V02,"[1]; Example 4, ten minutes after 30 mg intramuscular, before DNP, from 250",320 cc/min
"NC[C@H](O)c1ccc(O)c(O)c1 [Norepinephrine bitartrate (Levophed), Norepinephrine bitartrate]",heart rate,"[1]; Example 2, about 1 minute after vasopressor IV drip 1 microgram/min on DNP, from 90",100
same,V02,"[1]; Example 2, about 1 minute after vasopressor IV drip on DNP",0.85 L/min
same,core body temperature,"[1]; Example 2, within 20 minutes of vasopressor on DNP",41.5 °C
Oc1ccc(CCCCNC[C@H](O)c2ccc(O)c(O)c2)cc1 [arbutamine],half-life,[2]; in vivo,10 min
NCCc1ccc(O)c(O)c1 [dopamine],V02,"[1]; human, in vivo",680-710 cc/min
CN(C)c1ccc2nc3ccc(=[N+](C)C)cc-3sc2c1 [methylene blue],VO2,"[1]; Example 9, after methylene blue 2 mg/kg infusion, on DNP 3 mg/kg",450-500 cc/minute
NC(=O)CC[C@@H]1NC(=O)[C@H](Cc2ccccc2)NC(=O)[C@H](Cc2ccc(O)cc2)NC(=O)[C@@H](N)CSSC[C@@H](C(=O)N2CCC[C@H]2C(=O)N[C@@H](CCCN=C(N)N)C(=O)NCC(N)=O)NC(=O)[C@H](CC(N)=O)NC1=O [vasopressin],half-life,[2]; in vivo,5 min
glucagon,half-life,[2]; in plasma,9 min
same,stimulation of hepatocyte uncoupled V02,hepatocyte,up to 100%
interferon alpha-2b,HCV-RNA,"hepatitis C virus; after 6 months of interferon alpha-2b with ribavirin, before relapse",undetectable
same,hemoglobin concentration,"hepatitis C virus; after 12 weeks of interferon alpha-2b with ribavirin, anemia",9.2 g/deciliter
